Where two headings read alike, the source gives them in different places.
How the values were obtained:
human TYK2 = molecular target: T1, human TYK2 (Homo sapiens, UniProt P29597); assay: TYK2 inhibition assay; assay type: biochemical; conditions: recombinant human TYK2 catalytic domain, polyGT substrate
T1 construct: catalytic domain (amino acids 871-1187; catalog number 08-147); purchased Carna Biosciences 08-147
T1 sequence (P29597 871-1187): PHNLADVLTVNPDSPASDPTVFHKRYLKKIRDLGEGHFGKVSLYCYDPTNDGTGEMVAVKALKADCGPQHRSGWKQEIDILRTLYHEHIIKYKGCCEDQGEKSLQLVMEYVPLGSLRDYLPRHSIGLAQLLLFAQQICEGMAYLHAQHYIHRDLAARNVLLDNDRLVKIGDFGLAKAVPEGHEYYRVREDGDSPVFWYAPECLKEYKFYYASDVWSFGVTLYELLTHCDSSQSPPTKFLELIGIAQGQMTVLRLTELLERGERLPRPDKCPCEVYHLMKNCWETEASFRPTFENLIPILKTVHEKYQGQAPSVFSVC
Procedure, shortened: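 Radiometric kinase reaction run 90 min at 30 °C, stopped with phosphoric acid, washed and scintillation-counted.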

human JAK1 = molecular target: T2, human JAK1 (Homo sapiens, UniProt P23458); assay: JAK1 inhibition assay (polyGT substrate / Ulight-JAK1 peptide); assay type: biochemical; conditions: recombinant human JAK1 catalytic domain; polyGT or Ulight-JAK1 peptide assay
T2 construct: catalytic domain, amino acids 866-1154; catalog number PV4774; purchased Invitrogen PV4774
Procedure, shortened: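 Signal scaled between vehicle and 10 μM staurosporine. Radiometric polyGT reactions ran 45 min at 30 °C, counted after phosphoric-acid stop. Ulight peptide reactions ran 60 min at room temperature, fluorescence read after adding Eu-PT66 detection mix with EDTA.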

[1] = system: pSTAT1(2)-luciferase reporter in HeLa cells triggered with human OSM; assay: JAK-STAT signalling assay; assay type: cell-based; conditions: HeLa cells, pSTAT1(2)-luciferase reporter, human OSM 33 ng/mL, read-out: JAK-STAT IC50
Procedure, shortened: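 Compound added 60 min before 33 ng/mL (final) human OSM; after overnight stimulation at 37 °C, luciferase signal from a transiently transfected pSTAT1(2) reporter in HeLa cells was read, with LacZ as internal control. EC50 derived from percent-inhibition dose-response curves.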

human JAK3 = molecular target: T3, human JAK3 (Homo sapiens, UniProt P52333); assay: JAK3 inhibition assay; assay type: biochemical; conditions: recombinant human JAK3 catalytic domain; polyGT substrate
T3 construct: catalytic domain (amino acids 781-1124; catalog number PV3855); purchased Invitrogen PV3855
Procedure, shortened: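 Radiometric kinase assay: 0.5 ng JAK3 with 2.5 μg polyGT in Tris pH 7.5/MgCl2 buffer, 1 μM ATP plus 0.25 μCi 33P-γ-ATP, 1% DMSO, 45 min at 30 °C, stopped with phosphoric acid.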

BA/F3 cell line = assay: BA/F3 viability assay; conditions: Mus musculus, BaF3, 48 h, read-out: BA/F3 IC50
CTLL-2 cell line = assay: CTLL2 viability assay; assay type: cell-based; conditions: Mus musculus, IL-2 dependent CTLL2 viability, 24 h, ATP-lite
From the text: The protocol describes the methods to analyse the activity of compounds on their ability to sustain the IL2-dependent viability of CTLL2.
Final DMSO concentration was 0.1%.

human JAK2 = molecular target: T4, human JAK2 (Homo sapiens, UniProt O60674); assay: JAK2 inhibition assay (polyGT substrate / Ulight-JAK1 peptide); assay type: biochemical; conditions: recombinant human JAK2 catalytic domain; polyGT or Ulight-JAK1 peptide assay
T4 construct: catalytic domain (amino acids 808-1132; catalog number PV4210); GST; purchased Invitrogen PV4210
Procedure, shortened: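 Two JAK2 formats: a ^33P-ATP polyGT assay (1 μM cold ATP, 90 min, 30° C., cpm read-out) and a Ulight-JAK1 peptide assay read by Europium-anti-phosphotyrosine fluorescence after 60 min at room temperature.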

T3 sequence (P52333 781-1124): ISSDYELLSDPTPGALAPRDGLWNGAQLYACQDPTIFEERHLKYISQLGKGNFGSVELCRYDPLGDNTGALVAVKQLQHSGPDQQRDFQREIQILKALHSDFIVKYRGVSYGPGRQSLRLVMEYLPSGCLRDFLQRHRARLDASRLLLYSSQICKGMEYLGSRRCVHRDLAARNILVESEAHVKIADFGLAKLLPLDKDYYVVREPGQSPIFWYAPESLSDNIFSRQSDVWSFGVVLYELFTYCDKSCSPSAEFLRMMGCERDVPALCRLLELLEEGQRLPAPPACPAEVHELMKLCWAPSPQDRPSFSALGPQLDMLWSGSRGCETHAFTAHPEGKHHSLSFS
T4 sequence (O60674 808-1132): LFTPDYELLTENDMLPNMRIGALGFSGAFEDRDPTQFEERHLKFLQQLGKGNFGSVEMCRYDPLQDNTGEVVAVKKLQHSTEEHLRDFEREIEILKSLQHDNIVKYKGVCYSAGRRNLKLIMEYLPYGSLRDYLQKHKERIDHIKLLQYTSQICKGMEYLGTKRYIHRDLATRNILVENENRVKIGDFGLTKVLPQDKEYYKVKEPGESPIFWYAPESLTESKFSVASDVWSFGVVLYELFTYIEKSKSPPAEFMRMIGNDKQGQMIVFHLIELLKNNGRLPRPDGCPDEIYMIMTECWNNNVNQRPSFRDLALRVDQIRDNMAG
T2 sequence (P23458 866-1154): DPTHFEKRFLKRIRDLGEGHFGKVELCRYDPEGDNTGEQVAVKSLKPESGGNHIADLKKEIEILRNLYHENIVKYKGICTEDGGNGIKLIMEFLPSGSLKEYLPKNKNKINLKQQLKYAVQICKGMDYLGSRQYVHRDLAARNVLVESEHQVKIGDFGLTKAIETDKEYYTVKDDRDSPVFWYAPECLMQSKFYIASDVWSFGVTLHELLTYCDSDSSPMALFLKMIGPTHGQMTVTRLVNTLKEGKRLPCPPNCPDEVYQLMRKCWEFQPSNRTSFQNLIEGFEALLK

Structure (SMILES) | IC50 (human TYK2) [nM] | IC50 (human JAK1) [nM] | IC50 ([1]; Homo sapiens, HeLa) [nM] | IC50 (human JAK3) [nM] | IC50 (BA/F3 cell line) [nM] | IC50 (CTLL-2 cell line) [nM] | IC50 [1] [nM] | IC50 (human JAK2) [nM]
CCc1cc(-c2cncc(F)c2)ccc1N(C)c1cc2c(cn1)ncn2C [Compound 133, N-(2-ethyl-4-(5-fluoropyridin-3-yl)phenyl)-N,1-dimethyl-1H-imidazo[4,5-c]pyridin-6-amine] | 101 to 500 | 0.01 to 100 | 1 to 500 | 501 to 1000 | > 5000 | – | – | –
CCc1cc(C2=CCN(C(=O)C(C)O)CC2)ccc1N(C)c1cc2c(cn1)ncn2C (stereo not drawn) [Compound 201, 1-(4-(3-ethyl-4-(methyl(1-methyl-1H-imidazo[4,5-c]pyridin-6-yl)amino)phenyl)-5,6-dihydropyridin-1(2H)-yl)-2-hydroxypropan-1-one] | 0.01 to 100 | 0.01 to 100 | 1 to 500 | 101 to 500 | – | 501 to 1000 | – | –
CCc1cc(C2CCN(C(=O)C(F)F)CC2)ccc1N(C)c1cc2c(cn1)ncn2C [Compound 225, 1-(4-(3-ethyl-4-(methyl(1-methyl-1H-imidazo[4,5-c]pyridin-6-yl)amino)phenyl)piperidin-1-yl)-2,2-difluoroethanone] | 0.01 to 100 | 0.01 to 100 | – | 0.01 to 100 | 1000 to 5000 | – | 501 to 1000 | –
CCc1cc(CN(C)S(C)(=O)=O)ccc1N(C)c1cc2c(cn1)ncn2C [Compound 261, N-(3-ethyl-4-(methyl(1-methyl-1H-imidazo[4,5-c]pyridin-6-yl)amino)benzyl)-N-methylmethanesulfonamide] | 0.01 to 100 | 0.01 to 100 | – | 0.01 to 100 | 1000 to 5000 | 501 to 1000 | – | –
CN(c1cc2c(cn1)ncn2C)c1ccc(CNS(C)(=O)=O)cc1F [Compound 269, N-(3-Fluoro-4-(methyl(1-methyl-1H-imidazo[4,5-c]pyridin-6-yl)amino)benzyl)methanesulfonamide] | 0.01 to 100 | 0.01 to 100 | 501 to 1000 | 101 to 500 | > 5000 | – | – | –
CCn1nc(-c2ccc(Cl)cc2)cc1N(C)c1cc2c(cn1)ncn2C [Compound 307, [5-(4-Chloro-phenyl)-2-ethyl-2H-pyrazol-3-yl]-methyl-(1-methyl-1H-imidazo[4,5-c]pyridin-6-yl)-amine] | 101 to 500 | 0.01 to 100 | – | 101 to 500 | > 5000 | > 1000 | – | 101 to 500
CCc1cc(C2CN(C(=O)C3CCOCC3)C2)ncc1N(C)c1cc2c(cn1)ncn2C [Compound 337, (3-{4-Ethyl-5-[methyl-(1-methyl-1H-imidazo[4,5-c]pyridin-6-yl)-amino]-pyridin-2-yl}-azetidin-1-yl)-(tetrahydro-pyran-4-yl)-methanone] | > 1000 | 501 to 1000 | – | > 1000 | > 5000 | > 1000 | – | > 1000
CCc1cc(C2CN(CCC(F)(F)F)C2)ncc1N(C)c1cc2c(cn1)ncn2C [Compound 341, {4-Ethyl-6-[1-(3,3,3-trifluoro-propyl)-azetidin-3-yl]-pyridin-3-yl}-methyl-(1-methyl-1H-imidazo[4,5-c]pyridin-6-yl)-amine] | > 1000 | 101 to 500 | – | > 1000 | > 5000 | > 1000 | – | > 1000
CCc1cc(C2CN(CC(F)(F)F)C2)ncc1N(C)c1cc2c(cn1)ncn2C [Compound 342, {4-Ethyl-6-[1-(2,2,2-trifluoro-ethyl)-azetidin-3-yl]-pyridin-3-yl}-methyl-(1-methyl-1H-imidazo[4,5-c]pyridin-6-yl)-amine] | > 1000 | 101 to 500 | – | > 1000 | > 5000 | > 1000 | – | > 1000
CCc1cc(CN(CC#N)S(C)(=O)=O)ncc1N(C)c1cc2c(cn1)ncn2C [Compound 344, N-Cyanomethyl-N-{4-ethyl-5-[methyl-(1-methyl-1H-imidazo[4,5-c]pyridin-6-yl)-amino]-pyridin-2-ylmethyl}-methanesulfonamide] | 101 to 500 | 0.01 to 100 | – | 0.01 to 100 | > 5000 | > 1000 | – | 101 to 500
CCc1cc(C2CN(C(=O)C(F)F)C2)ccc1N(C)c1cc2c(cn1)ncn2C [Compound 346, 1-(3-{3-Ethyl-4-[methyl-(1-methyl-1H-imidazo[4,5-c]pyridin-6-yl)-amino]-phenyl)-azetidin-1-yl)-2,2-difluoro-ethanone] | 0.01 to 100 | 0.01 to 100 | – | 101 to 500 | > 5000 | > 1000 | – | 0.01 to 100
CCc1cc(C2CN(C(=O)C(F)(F)F)C2)ccc1N(C)c1cc2c(cn1)ncn2C [Compound 347, 1-(3-{3-Ethyl-4-[methyl-(1-methyl-1H-imidazo[4,5-c]pyridin-6-yl)-amino]-phenyl}-azetidin-1-yl)-2,2,2-trifluoro-ethanone] | 101 to 500 | 0.01 to 100 | – | 101 to 500 | > 5000 | > 1000 | – | 101 to 500
CCc1cc(C2CN(S(=O)(=O)CCOC)C2)ccc1N(C)c1cc2c(cn1)ncn2C [Compound 349, {2-Ethyl-4-[1-(2-methoxy-ethanesulfonyl)-azetidin-3-yl]-phenyl}-methyl-(1-methyl-1H-imidazo[4,5-c]pyridin-6-yl)-amine] | 0.01 to 100 | 0.01 to 100 | – | 101 to 500 | 1000 to 5000 | > 1000 | – | 0.01 to 100
CCc1cc(C2CN(C(=O)COC)C2)ccc1N(C)c1cc2c(cn1)ncn2C [Compound 350, 1-(3-{3-Ethyl-4-[methyl-(1-methyl-1H-imidazo[4,5-c]pyridin-6-yl)-amino]-phenyl}-azetidin-1-yl)-2-methoxy-ethanone] | 101 to 500 | 0.01 to 100 | – | > 1000 | > 5000 | > 1000 | – | 101 to 500
CCc1cc(C2CN(CC#N)C2)ccc1N(C)c1cc2c(cn1)ncn2C [Compound 351, (3-{3-Ethyl-4-[methyl-(1-methyl-1H-imidazo[4,5-c]pyridin-6-yl)-amino]-phenyl}-azetidin-1-yl)-acetonitrile] | 101 to 500 | 0.01 to 100 | – | 101 to 500 | > 5000 | > 1000 | – | 0.01 to 100
CCc1cc(C2CN(S(=O)(=O)CC(F)(F)F)C2)ccc1N(C)c1cc2c(cn1)ncn2C [Compound 352, {2-Ethyl-4-[1-(2,2,2-trifluoro-ethanesulfonyl)-azetidin-3-yl]-phenyl}-methyl-(1-methyl-1H-imidazo[4,5-c]pyridin-6-yl)-amine] | 0.01 to 100 | 0.01 to 100 | – | 0.01 to 100 | > 5000 | > 1000 | – | 0.01 to 100
CCc1cc(C2CN(S(=O)(=O)CC#N)C2)ccc1N(C)c1cc2c(cn1)ncn2C [Compound 353, (3-{3-Ethyl-4-[methyl-(1-methyl-1H-imidazo[4,5-c]pyridin-6-yl)-amino]-phenyl}-azetidine-1-sulfonyl)-acetonitrile] | 0.01 to 100 | 0.01 to 100 | – | 0.01 to 100 | 1000 to 5000 | 501 to 1000 | – | 0.01 to 100
CCc1cc(CN2CC(F)(F)C2)ccc1N(C)c1cc2c(cn1)ncn2C [Compound 378, [4-(3,3-Difluoro-azetidin-1-ylmethyl)-2-ethyl-phenyl]-methyl-(1-methyl-1H-imidazo[4,5-c]pyridin-6-yl)-amine] | – | – | – | – | > 5000 | > 1000 | – | –
